Results reported in patent publication US20250230165A1, “HETEROCYCLIC COMPOUNDS FOR USE IN THE TREATMENT OF CANCER” (ARTIOS PHARMA LIMITED, priority 2021, published 2025).

Target: T1, Human Polθ polymerase domain (aa1820-2590) (Homo sapiens, UniProt O75417)
T1 construct: Human Polθ polymerase domain (aa1820-2590) was expressed in E. coli; made in house; host or cells: E. coli
T1 sequence (O75417 1820-2590): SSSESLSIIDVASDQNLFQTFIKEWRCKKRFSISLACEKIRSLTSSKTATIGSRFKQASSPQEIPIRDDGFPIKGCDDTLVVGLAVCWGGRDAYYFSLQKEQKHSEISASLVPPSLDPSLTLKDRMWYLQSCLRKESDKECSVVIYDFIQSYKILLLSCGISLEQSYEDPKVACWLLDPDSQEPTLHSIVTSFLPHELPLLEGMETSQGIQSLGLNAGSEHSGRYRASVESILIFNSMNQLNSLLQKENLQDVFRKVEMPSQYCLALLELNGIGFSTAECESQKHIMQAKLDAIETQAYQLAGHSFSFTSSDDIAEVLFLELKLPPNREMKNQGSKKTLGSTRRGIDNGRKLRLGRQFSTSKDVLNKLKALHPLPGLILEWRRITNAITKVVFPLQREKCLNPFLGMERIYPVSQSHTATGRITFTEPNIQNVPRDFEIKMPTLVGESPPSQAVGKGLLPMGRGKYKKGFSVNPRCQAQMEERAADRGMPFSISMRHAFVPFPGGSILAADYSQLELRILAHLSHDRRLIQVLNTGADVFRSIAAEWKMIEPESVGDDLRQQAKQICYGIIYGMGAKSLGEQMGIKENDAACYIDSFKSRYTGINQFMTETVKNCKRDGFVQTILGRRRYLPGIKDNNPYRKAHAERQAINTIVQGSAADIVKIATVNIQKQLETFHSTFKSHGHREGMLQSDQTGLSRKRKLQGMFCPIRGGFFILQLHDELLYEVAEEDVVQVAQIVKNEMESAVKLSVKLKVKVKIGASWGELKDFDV
Test: Polθ Polymerase Domain Kinact/KI Assay (PicoGreen)
Type: biochemical
Settings: 0.8 nM Polθ, 100 nM DNA substrate, kobs vs [I] fit for 2-step covalent inhibitor
Procedure, shortened: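 Covalent Kinact/KI by PicoGreen DNA synthesis readout: E. coli-expressed Polθ polymerase domain (0.8 nM), 100 nM annealed DNA substrate, […], Tris pH 7.5 buffer with DTT, 1% DMSO; EDTA-stopped over 0–60 min time course. kobs from progress curves, then kobs vs [I] fit to two-step covalent model.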

Kinact/Kl | Structure (SMILES)
0.87 µM⁻¹ s⁻¹ | C=CC(=O)N1CC2(CN(CCN3C[C@H]4CC(=O)N(c5cc(C(F)(F)F)cc(C)n5)[C@@H]4C(=O)N(C)c4cccc(F)c43)CCN2CC)C1 [Example 35, (3aR,11aS)-5-(2-(2-acryloyl-5-ethyl-2,5,8-triazaspiro[3.5]nonan-8-yl)ethyl)-6-fluoro-10-methyl-1-(6-methyl-4-(trifluoromethyl)pyridin-2-yl)-1,3a,4,5,10,11a-hexahydro-2H-benzo[b]pyrrolo[2,3-f][1,4]diazocine-2,11(3H)-dione]
1.47 µM⁻¹ s⁻¹ | C=CC(=O)N1CC2(CN(CCN3C[C@H]4CC(=O)N(c5cc(C(F)(F)F)cc(C)n5)[C@@H]4C(=O)N(C)c4cccc(F)c43)CCN2C(C)=O)C1 [Example 36, (3aR,11aS)-5-(2-(5-acetyl-2-acryloyl-2,5,8-triazaspiro[3.5]nonan-8-yl)ethyl)-6-fluoro-10-methyl-1-(6-methyl-4-(trifluoromethyl)pyridin-2-yl)-1,3a,4,5,10,11a-hexahydro-2H-benzo[b]pyrrolo[2,3-f][1,4]diazocine-2,11(3H)-dione]
1.48 µM⁻¹ s⁻¹ | C=CC(=O)N1CC2(C1)N[C@H](C)CN(CCN1C[C@H]3CC(=O)N(c4cc(C(F)(F)F)cc(C)n4)[C@@H]3C(=O)N(C)c3cccc(F)c31)C2C (stereo partly drawn) [Example 37a, (3aR,11aS)-5-(2-((6R,9S/R)-2-acryloyl-6,9-dimethyl-2,5,8-triazaspiro[3.5]nonan-8-yl)ethyl)-6-fluoro-10-methyl-1-(6-methyl-4-(trifluoromethyl)pyridin-2-yl)-1,3a,4,5,10,11a-hexahydro-2H-benzo[b]pyrrolo[2,3-f][1,4]diazocine-2,11(3H)-dione]
2.39 µM⁻¹ s⁻¹ | C=CC(=O)N1CC(n2cnc(CN3C[C@H]4CC(=O)N(c5cc(C(F)(F)F)cc(C)n5)[C@@H]4C(=O)N(C)c4cccc(F)c43)c2)C1 [Example 38, (3aR,11aS)-5-((1-(1-acryloylazetidin-3-yl)-1H-imidazol-4-yl)methyl)-6-fluoro-10-methyl-1-(6-methyl-4-(trifluoromethyl)pyridin-2-yl)-1,3a,4,5,10,11a-hexahydro-2H-benzo[b]pyrrolo[2,3-f][1,4]diazocine-2,11(3H)-dione]
3.42 µM⁻¹ s⁻¹ | C=CC(=O)N1CC(n2cnc(CN3C[C@H]4CC(=O)N(c5cc(C(F)(F)F)cc(C)n5)[C@@H]4C(=O)N(C)c4cccc(Cl)c43)c2)C1 [Example 39, (3aR,11aS)-5-((1-(1-acryloylazetidin-3-yl)-1H-imidazol-4-yl)methyl)-6-chloro-10-methyl-1-(6-methyl-4-(trifluoromethyl)pyridin-2-yl)-1,3a,4,5,10,11a-hexahydro-2H-benzo[b]pyrrolo[2,3-f][1,4]diazocine-2,11(3H)-dione]
0.85 µM⁻¹ s⁻¹ | C=CC(=O)N1CC(n2cnc(CN3C[C@H]4CC(=O)N(c5cc(C(F)(F)F)cc(C)n5)[C@@H]4C(=O)N(C)c4cc(F)ccc43)c2)C1 [Example 40, (3aR,11aS)-5-((1-(1-acryloylazetidin-3-yl)-1H-imidazol-4-yl)methyl)-8-fluoro-10-methyl-1-(6-methyl-4-(trifluoromethyl)pyridin-2-yl)-1,3a,4,5,10,11a-hexahydro-2H-benzo[b]pyrrolo[2,3-f][1,4]diaocine-2,11(3H)-dione]
1.38 µM⁻¹ s⁻¹ | C=CC(=O)N1CC(n2ccc(CN3C[C@H]4CC(=O)N(c5cc(C(F)(F)F)cc(C)n5)[C@@H]4C(=O)N(C)c4cc(F)ccc43)n2)C1 [Example 41, (3aR,11aS)-5-((1-(1-acryloylazetidin-3-yl)-1H-pyrazol-3-yl)methyl)-8-fluoro-10-methyl-1-(6-methyl-4-(trifluoromethyl)pyridin-2-yl)-1,3a,4,5,10,11a-hexahydro-2H-benzo[b]pyrrolo[2,3-f][1,4]diazocine-2,11(3H)-dione]
